Experimental findings from ChEMBL document CHEMBL1129135, “Synthesis and antitumor evaluation of paclitaxel phosphonooxymethyl ethers: a novel class of water soluble paclitaxel pro-drugs” (1996) are described below.

Common to all, as to assay type: functional
Holding throughout (details): route intraperitoneal

Experiment [1] deals with Mus musculus. In words: Compound was tested in vivo for its efficacy against the M109 murine tumor model at the dose of 200 mg/kg/inj after ip administration.
The test system of experiment [2] is Mus musculus. In words: Compound was tested in vivo for its efficacy against the M109 murine tumor model at the dose of 60 mg/kg/injection after ip administration (Data reported with reference to Paclitaxel).
Experiment [3] deals with Mus musculus. Nature of the experiment: Compound was tested in vivo for its efficacy against the M109 murine tumor model at the dose of 64 mg/kg/injection after ip administration.
The subject of experiment [4] is Mus musculus. In words: Compound was tested in vivo for its efficacy against the M109 murine tumor model at the dose of 44 mg/kg/injection after ip administration (Data reported with reference to Paclitaxel).

With `CC(=O)O[C@H]1C(=O)[C@@]2(C)[C@H]([C@H](OC(=O)c3ccccc3)[C@]3(O)C[C@H](OC(=O)[C@H](OCOP(=O)(O)O)[C@@H](NC(=O)c4ccccc4)c4ccccc4)C(C)=C1C3(C)C)[C@]1(OC(C)=O)CO[C@@H]1C[C@@H]2O`, the values for the T/C in experiment [1] and in experiment [2] were 144% and 237%, respectively.
As to `CCOC(=O)O[C@@H](C(=O)O[C@H]1C[C@@]2(O)[C@@H](OC(=O)c3ccccc3)[C@@H]3[C@]4(OC(C)=O)CO[C@@H]4C[C@H](OCOP(=O)(O)O)[C@@]3(C)C(=O)[C@H](OC(C)=O)C(=C1C)C2(C)C)[C@@H](NC(=O)c1ccccc1)c1ccccc1`, the figures for the T/C in experiment [3] and in experiment [4] were 188% and 175%, respectively.
